Data published in patent publication US8685970B2, “Quinolines and related analogs as sirtuin modulators” (GlaxoSmithKline, LLC, priority 2008, dated 2014).

Biological target: T1, SIRT1 (Homo sapiens, UniProt Q96EB6)
T1 sequence (Q96EB6 1-747): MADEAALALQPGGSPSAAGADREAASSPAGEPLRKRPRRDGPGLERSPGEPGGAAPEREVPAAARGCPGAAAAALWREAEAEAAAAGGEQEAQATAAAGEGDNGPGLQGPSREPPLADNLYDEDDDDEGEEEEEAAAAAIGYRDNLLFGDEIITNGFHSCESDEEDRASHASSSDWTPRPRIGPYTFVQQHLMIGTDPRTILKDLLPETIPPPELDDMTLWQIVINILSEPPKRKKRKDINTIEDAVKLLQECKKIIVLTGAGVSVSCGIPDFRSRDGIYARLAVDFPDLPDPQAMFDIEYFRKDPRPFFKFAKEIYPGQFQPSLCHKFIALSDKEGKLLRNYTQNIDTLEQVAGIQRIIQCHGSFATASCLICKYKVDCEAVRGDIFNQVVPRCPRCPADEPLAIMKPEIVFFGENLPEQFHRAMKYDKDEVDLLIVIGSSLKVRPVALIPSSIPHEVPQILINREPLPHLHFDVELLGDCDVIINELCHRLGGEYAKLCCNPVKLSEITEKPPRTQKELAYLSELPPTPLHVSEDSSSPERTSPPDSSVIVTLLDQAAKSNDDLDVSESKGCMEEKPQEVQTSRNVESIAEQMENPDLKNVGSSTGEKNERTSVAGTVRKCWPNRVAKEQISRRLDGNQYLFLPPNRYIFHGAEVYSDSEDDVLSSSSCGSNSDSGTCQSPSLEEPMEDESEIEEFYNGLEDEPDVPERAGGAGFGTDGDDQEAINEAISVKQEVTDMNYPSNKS
Assay: Mass spectrometry based SIRT1 deacetylation assay (activation)
Type: biochemical
Settings: 10 nM SIRT1, 0.5 μM peptide substrate, 120 μM βNAD+, 25 min at 25° C.
Outline: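 Recombinant N-His-tagged SIRT1 (E. coli BL21(DE3)), 10 nM, incubated 25 min at 25 °C with 0.5 μM biotin/5TMR-labelled acetyl-p53-derived 20-mer peptide and 120 μM βNAD+ in Tris-acetate pH 8 buffer with DTT and BSA. Formic acid stop; MS quantifies acetylated vs deacetylated peptide. EC1.5 = concentration giving 150% activation versus DMSO.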

| Compound | % Fold Act. (percent maximum fold activation) | EC1.5 (concentration of test compound that results in 150% activation of SIRT1) |
| --- | --- | --- |
| O=C(Nc1cccc2ccc(-c3ccc(N4CCOCC4)nc3)nc12)c1cscn1 [Compound 246] | A (Fold activation >200%) | B (EC1.5 1-25 uM) |
| O=C(Nc1nccs1)c1cccc2ccc(-c3cccc(C(F)F)c3)nc12 [Compound 247] | A (Fold activation >200%) | A (EC1.5<1.0 uM) |
| Cc1cc(C)nc(NC(=O)c2cccc3ccc(-c4cccnc4)nc23)c1 [Compound 248] | A (Fold activation >200%) | A (EC1.5<1.0 uM) |
| Cc1cccc(NC(=O)c2cccc3ccc(-c4cccnc4)nc23)n1 [Compound 249] | A (Fold activation >200%) | B (EC1.5 1-25 uM) |
| O=C(Nc1nc2ccccc2s1)c1cccc2ccc(-c3cccc(N4CCOCC4)c3)nc12 [Compound 250] | A (Fold activation >200%) | A (EC1.5<1.0 uM) |
| O=C(Nc1nncs1)c1cccc2ccc(-c3cccc(N4CCOCC4)c3)nc12 [Compound 251] | A (Fold activation >200%) | A (EC1.5<1.0 uM) |
| Cc1nnc(NC(=O)c2cccc3ccc(-c4cccc(N5CCOCC5)c4)nc23)s1 [Compound 252] | A (Fold activation >200%) | A (EC1.5<1.0 uM) |
| Cc1cc(NC(=O)c2cccc3ccc(-c4cccc(N5CCOCC5)c4)nc23)sn1 [Compound 253] | A (Fold activation >200%) | A (EC1.5<1.0 uM) |
| O=C(Nc1ccncc1)c1cccc2ccc(-c3cccc(N4CCOCC4)c3)nc12 [Compound 254] | A (Fold activation >200%) | A (EC1.5<1.0 uM) |
| O=C(Nc1cccc(CN2CCOCC2)c1)c1cccc2ccc(-c3cccc(C(F)(F)F)c3)nc12 [Compound 255] | A (Fold activation >200%) | A (EC1.5<1.0 uM) |
| O=C(Nc1cccc(OC2CCNCC2)c1)c1cccc2ccc(-c3cccc(C(F)(F)F)c3)nc12 [Compound 256] | A (Fold activation >200%) | A (EC1.5<1.0 uM) |
| O=C(Nc1cccc(OC2CCNC2)c1)c1cccc2ccc(-c3cccc(C(F)(F)F)c3)nc12 (stereo not drawn) [Compound 257] | A (Fold activation >200%) | A (EC1.5<1.0 uM) |
| O=C(Nc1ncnc2ccc(-c3cccc(C(F)(F)F)c3)nc12)c1cccc(C(F)(F)F)c1 [Compound 258] | – | C (EC1.5>25 uM) |
| O=C(Nc1ncnc2ccc(-c3cccc(C(F)(F)F)c3)nc12)c1cscn1 [Compound 259] | A (Fold activation >200%) | A (EC1.5<1.0 uM) |
| O=C(Nc1cccnc1)c1cccc2ccc(-c3cccc(C(F)F)c3)nc12 [Compound 260] | A (Fold activation >200%) | A (EC1.5<1.0 uM) |
| O=C(Nc1nc(CN2CCCC2)cs1)c1cccc2ccc(-c3cccc(C(F)F)c3)nc12 [Compound 261] | A (Fold activation >200%) | A (EC1.5<1.0 uM) |
| O=C(Nc1ncc(CN2CCCC2)s1)c1cccc2ccc(-c3cccc(C(F)F)c3)nc12 [Compound 262] | A (Fold activation >200%) | B (EC1.5 1-25 uM) |
| O=C(Nc1cccnn1)c1cccc2ccc(-c3cccnc3)nc12 [Compound 263] | A (Fold activation >200%) | A (EC1.5<1.0 uM) |
| Cc1nnc(NC(=O)c2cccc3ccc(-c4cccnc4)nc23)o1 [Compound 264] | – | C (EC1.5>25 uM) |

| Compound | % Fold Act. (percent maximum fold activation) | EC1.5 (concentration of test compound that results in 150% activation of SIRT1) |
| --- | --- | --- |
| O=C(Nc1ccc(F)cn1)c1cccc2ccc(-c3cccnc3)nc12 [Compound 265] | – | C (EC1.5>25 uM) |
| O=C(Nc1ccc(Cl)cn1)c1cccc2ccc(-c3cccnc3)nc12 [Compound 266] | – | C (EC1.5>25 uM) |
| Cc1cc(C)nc(NC(=O)c2cccc3ccc(-c4cccc(N5CCOCC5)c4)nc23)c1 [Compound 267] | A (Fold activation >200%) | A (EC1.5<1.0 uM) |
| Cc1cccc(NC(=O)c2cccc3ccc(-c4cccc(N5CCOCC5)c4)nc23)n1 [Compound 268] | A (Fold activation >200%) | A (EC1.5<1.0 uM) |
| O=C(Nc1cccnn1)c1cccc2ccc(-c3cccc(N4CCOCC4)c3)nc12 [Compound 269] | A (Fold activation >200%) | A (EC1.5<1.0 uM) |
| O=C(Nc1nccs1)c1cccc2cnc(-c3cccc(C(F)(F)F)c3)nc12 [Compound 270] | – | C (EC1.5>25 uM) |
| O=C(Nc1ccncn1)c1cccc2cnc(-c3cccc(C(F)(F)F)c3)nc12 [Compound 271] | B (Fold Activation <200%) | B (EC1.5 1-25 uM) |
| Cn1ccc(NC(=O)c2cccc3ccc(-c4cccc(C(F)(F)F)c4)nc23)n1 [Compound 272] | A (Fold activation >200%) | A (EC1.5<1.0 uM) |
| O=S(=O)(Nc1cccc2ccc(-c3cccc(C(F)(F)F)c3)nc12)c1ccccn1 [Compound 273] | – | C (EC1.5>25 uM) |
| O=C(Nc1nc(CN2CCOCC2)cs1)c1cccc2ccc(-c3ccccc3C(F)(F)F)nc12 [Compound 274] | A (Fold activation >200%) | A (EC1.5<1.0 uM) |
| Cc1nnc(NC(=O)c2cccc3ccc(-c4cccc(C(F)(F)F)c4)nc23)s1 [Compound 275] | B (Fold Activation <200%) | A (EC1.5<1.0 uM) |
| Cc1nnc(NC(=O)c2cccc3ccc(-c4cccc(N5CCOCC5)c4)nc23)o1 [Compound 276] | A (Fold activation >200%) | A (EC1.5<1.0 uM) |
| O=C(Nc1ccc(F)cn1)c1cccc2ccc(-c3cccc(N4CCOCC4)c3)nc12 [Compound 277] | A (Fold activation >200%) | A (EC1.5<1.0 uM) |
| O=C(Nc1ccc(Cl)cn1)c1cccc2ccc(-c3cccc(N4CCOCC4)c3)nc12 [Compound 278] | A (Fold activation >200%) | A (EC1.5<1.0 uM) |
| O=C(Nc1cnccn1)c1cccc2ccc(-c3cccc(N4CCOCC4)c3)nc12 [Compound 279] | A (Fold activation >200%) | A (EC1.5<1.0 uM) |
| O=C(Nc1nccs1)c1cccc2cnc(-c3cccnc3)nc12 [Compound 280] | – | C (EC1.5>25 uM) |
| Cc1csc(NC(=O)c2cccc3cnc(-c4cccc(C(F)(F)F)c4)nc23)n1 [Compound 281] | A (Fold activation >200%) | B (EC1.5 1-25 uM) |
| O=C(Nc1cccnc1)c1cccc2cnc(-c3cccc(C(F)(F)F)c3)nc12 [Compound 282] | – | C (EC1.5>25 uM) |
